Here are results for five molecules from patent publication US7291642B2, “Bradykinin-B1 antagonists, process for their preparation and their use as medicaments” (Boehringer Ingelheim International GmbH, priority 2004, dated 2007).

pKi: −log10 of the molar value. Counter-ions that a name gives are not always drawn.

The assay addresses T1, hBK1 receptor (Homo sapiens, UniProt P46663).
T1 construct: expressed in transfected cells; host or cells: CHO cells (membrane homogenate)
T1 sequence (P46663 1-353): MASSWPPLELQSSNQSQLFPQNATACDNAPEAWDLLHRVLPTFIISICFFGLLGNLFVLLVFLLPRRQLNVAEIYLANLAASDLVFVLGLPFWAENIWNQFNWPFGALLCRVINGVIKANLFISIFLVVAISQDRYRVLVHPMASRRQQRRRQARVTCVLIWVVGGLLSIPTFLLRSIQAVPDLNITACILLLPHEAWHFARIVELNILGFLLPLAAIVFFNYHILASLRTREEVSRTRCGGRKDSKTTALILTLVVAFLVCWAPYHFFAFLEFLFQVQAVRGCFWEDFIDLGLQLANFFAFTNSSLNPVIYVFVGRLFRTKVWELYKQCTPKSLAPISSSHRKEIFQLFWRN
The assay can be described thus: hBK1 receptor binding. Particulars: membranes of CHO cells expressing the hBK1 receptor; radioligand 0.5 to 1.0 nM kallidin (DesArg10, Leu9), [3,4-prolyl-3,43H(N)]; 60 minutes, room temperature. The procedure:
CHO cells expressing the hBK1 receptor are cultivated in Dulbecco's modified medium. The medium from confluent cultures is removed and the cells are washed with PBS buffer, scraped off and isolated by centrifugation. The cells are then homogenized in suspension and the homogenate is centrifuged and resuspended. The protein content is determined and the membrane preparation obtained in this manner is then frozen at −80° C.
After thawing, 200 μl of the homogenate (50 to 100 μg of proteins/assay) are incubated at room temperature with 0.5 to 1.0 nM of kallidin (DesArg10, Leu9), [3,4-prolyl-3,43H(N)] and increasing concentrations of the test substance in a total volume of 250 μl for 60 minutes. The incubation is terminated by rapid filtration through GF/B glass fibre filters which had been pretreated with polyethyleneimine (0.3%). The protein-bound radioactivity is measured in a TopCount NXT. Non-specific binding is defined as radioactivity bound in the presence of 1.0 μM of […]. The concentration/binding curve is analysed using a computer-assisted nonlinear curve fitting. The Ki which corresponds to the test substance is determined using the data obtained in this manner.
Molecule `Cc1cc(S(=O)(=O)N(C)CCNC(=O)CCc2ccc(C3=NCCN3)cc2)c(C)cc1Cl` [D, N-{2-[(4-chloro-2,5-dimethylbenzenesulphonyl)methylamino]ethyl}-3-[4-(4,5-dihydro-1H-imidazol-2-yl)phenyl]propionamide] had a pKi of 6.77.
With `CN(CCN1CCN(CCc2ccc(C3=NCCN3)cc2)C1=O)S(=O)(=O)c1cccc(Cl)c1Cl` [E, 2,3-dichloro-N-[2-(3-{2-[4-(4,5-dihydro-1H-imidazol-2-yl)phenyl]ethyl}-2-oxoimidazolidin-1-yl)ethyl]-N-methylbenzenesulphonamide hydrochloride], the pKi was 5.82.
The value for `CC(C)N(CCCC(=O)N(C)CCc1ccc(C2=NCCN2)cc1)S(=O)(=O)c1cccc(Cl)c1Cl` [A, 4-[(2,3-dichlorobenzenesulphonyl)isopropylamino]-N-{2-[4-(4,5-dihydro-1H-imidazol-2-yl)phenyl]ethyl}-N-methylbutyramide] was 7.21; that for `CN(CCc1ccc(C2=NCCN2)cc1)C(=O)C1CCCN(S(=O)(=O)c2cccc(Cl)c2Cl)C1` (centres unmarked) [C, 1-[(2,3-dichlorobenzenesulphonyl)piperidin-3-yl]-N-({2-[4-(4,5-dihydro-1H-imidazol-2-yl)phenyl]ethyl}methyl)carboxamide] was 6.02; that for `Cc1cc(S(=O)(=O)N2CCCCC2CCC(=O)N(C)CCc2ccc(C3=NCCN3)cc2)c(C)cc1Cl` (centres unmarked) [B, 3-[1-(4-chloro-2,5-dimethylbenzenesulphonyl)piperidin-2-yl]-N-{2-[4-(4,5-dihydro-1H-imidazol-2-yl)phenyl]ethyl}-N-methylpropionamide hydrochloride] was 7.59.

Usually pKi stands for the negative decadic logarithm of the Ki, by convention in mol/L. Low values mean a large Ki, high ones a small Ki.
